The source of these data is US20130225548A1, “Pyridine Derivative and Medicinal Agent” (NIPPON SHINYAKU CO., LTD., priority 2010, published 2013).

Counter-ions that a name gives are not always drawn.

In this assay the target is T1, Syk tyrosine kinase (Homo sapiens, UniProt P43405).
T1 construct: purchased Carna Biosciences, Inc
Kind of assay: Test for Syk tyrosine kinase inhibitory activity (ELISA). The class given is biochemical. Particulars: Syk tyrosine kinase (Carna Biosciences), 25 μM ATP in substrate solution, 30° C. 1 hour, n=2; read-out: Evaluation (IC50, concentration inhibiting the tyrosine kinase activity at 50%). The procedure: Test Example 1: Test for Syk Tyrosine Kinase Inhibitory Activity
1. Preparation of Test Substance
A test substance was prepared at 10 mM in dimethyl sulfoxide (DMSO), and further diluted with DMSO to concentrations of 1000, 300, 100, 30, 10, 3, 1, 0.3, 0.1, 0.03, and 0.01 μM. The resulting solutions were further diluted to 20-fold with an assay buffer, whereby test substance solutions were prepared. As a negative control, a solution obtained by diluting DMSO to 20-fold with an assay buffer was used. As the assay buffer, a buffer containing 15 mM Tris-HCl (pH 7.5), 0.01 (v/v) % Tween-20, and 1 mM dithiothreitol was used.
2. Measurement of Syk Tyrosine Kinase Inhibitory Activity
The activity was measured using the ELISA method. Each of the test substance solutions was added to a streptavidine-coated 96-well place (DELFIA Strip Plate 8×12 wells, PerkinElmer Co., Ltd,) at 10 μL per well (n=2), and a substrate solution (625 nM biotinylated peptide substrate, 25 μM ATP, 25 mM MgCl2, 15 mM Tris-HCl (pH 7.5), 0.01 (v/v) % Tween-20, 1 mM dithiothreitol) was added to the plate at 20 μL per well, and the resulting mixture was stirred. Finally, Syk tyrosine kinase (Carna Biosciences, Inc.) (previously diluted to 0.025 nM with the assay buffer) was added to the plate at 20 μL per well, and the resulting mixture was stirred. A reaction was allowed to proceed at 30° C. for 1 hour. After the plate was washed 4 times with a washing buffer (50 mM Tris-HCl (pH 7.5, 150 mM NaCl, 0.02 (v/v) % Tween-20), a blocking buffer (0.1% bovine serum albumin, 50 mM Tris-HCl (pH 7.5), 150 mM NaCl, 0.02 (v/v) % Tween-20) was added to the plate at 150 μL per well, and blocking was performed at 30° C. for 30 minutes. Then, the blocking buffer was removed, and a horseradish peroxidase-labeled anti-phosphorylated tyrosine antibody (BD Biosciences, Inc.) (previously diluted to 10000-fold with the blocking buffer) was added to the plate at 100 μL per well, and the plate was incubated at 30° C. for 30 minutes. After the plate was washed 4 times with the washing buffer, a 3,3′,5,5′-tetramethylbenzidine solution (Sigma-Aldrich Co., Ltd.) was added to the plate at 100 μL per well to develop the color for 10 minutes. The reaction was stopped by adding 0.1 M sulfuric acid at 100 μL per well. The absorbance at 450 nm was measured using a microplate reader (Multiskan F C, Thermo Fisher Scientific K,K.).
3. Analysis of Measurement Results
A non-linear regression analysis was performed for the measured absorbance using the SAS system (SAS institute. Inc.), and a concentration of each of the test substances: inhibiting the tyrosine kinase activity at 50% (IC50 ) was calculated. A case where IC50 is […] was evaluated as ***, a case where IC50 is 5 nM or more and less than 50 nM was evaluated as **, and a case where IC50 is 50 nM or more and less than 500 nM was evaluated as *, which are shown in the column of evaluation item.
`CC(C)NC(=O)N1CCN(c2ccc(-c3cc(C4CC4)cc(Nc4cc(C#N)ccn4)n3)cn2)CC1` [Example 44, 4-{6-[(4-cyanopyridin-2-yl)amino]-4-cyclopropyl-2,3′-bipyridin-6′-yl}-N-(propan-2-yl)piperazine-1-carboxamide hydrochloride]: the IC50 is 50 to 500 nM.

In the case of `N#Cc1ccnc(Nc2cc(C3CC3)cc(-c3ccc(N4CC[C@@H](NC(N)=O)C4)nc3)n2)c1` [Example 45, 1-[(3R)-1-{6-[(4-cyanopyridin-2-yl)amino]-4-cyclopropyl-2,3′-bipyridin-6′-yl}pyrrolidin-3-yl]urea hydrochloride], the IC50 lay in the range of 50 to 500 nM.

In the case of `N#Cc1ccnc(Nc2cc(C3CC3)cc(-c3ccc(N4CCN(C(N)=S)CC4)nc3)n2)c1` [Example 46, 4-{6-[(4-cyanopyridin-2-yl)amino]-4-cyclopropyl-2,3′-bipyridin-6′-yl}piperazine-1-carbothioamide hydrochloride], the IC50 is 50 to 500 nM.

On to `N#Cc1ccnc(Nc2cc(C3CC3)cc(-c3ccc(N4CCC[C@@H]4C(N)=O)nc3)n2)c1` [Example 47, (R)-1-{6-[(4-cyanopyridin-2-yl)amino]-4-cyclopropyl-2,3′-bipyridin-6′-yl}pyrrolidine-2-carboxamide hydrochloride], for which the IC50 was in the range of 50 to 500 nM.

With `N#Cc1ccnc(Nc2cc(C3CC3)cc(-c3ccc(N4CCC[C@H]4CO)nc3)n2)c1` [Example 48, 2-{(4-cyclopropyl-6′-[(2S)-2-(hydroxymethyl)pyrrolidin-1-yl]-2,3′-bipyridin-6-yl}amino)pyridine-4-carbonitrile hydrochloride], the IC50 is 50 to 500 nM.

With `N#Cc1ccnc(Nc2cc(C3CC3)cc(-c3ccc(N4CC[C@@H](N)C4)nc3)n2)c1` [Example 49, 2-({6′-[(3R)-3-aminopyrrolidin-1-yl]-4-cyclopropyl-2,3′-bipyridin-6-yl}amino)pyridine-4-carbonitrile dihydrochioride], the IC50 is 5 to 50 nM.

As to `CC(=O)N[C@@H]1CCN(c2ccc(-c3cc(C4CC4)cc(Nc4cc(C#N)ccn4)n3)cn2)C1` [Example 50, N-[(3R)-1-{6-[(4-cyanopyridin-2-yl)amino]-4-cyclopropyl-2,3′-bipyridin-6′-yl}pyrrolidin-3-yl]acetamide hydrochloride], the IC50 lay within 50 to 500 nM.

Turning to `N#Cc1ccnc(Nc2cc(C3CC3)cc(-c3ccc(N4CC[C@@H](F)C4)nc3)n2)c1` [Example 51, 2-({4-cyclopropyl-6′-[(3R)-3-fluoropyrrolidin-1-yl]-2,3′-bipyridin-6-yl}amino)pyridine-4-carbonitrile hydrochloride], the IC50 fell in the range of 50 to 500 nM.

In the case of `CN(C)[C@@H]1CCN(c2ccc(-c3cc(C4CC4)cc(Nc4cc(C#N)ccn4)n3)cn2)C1` [Example 52, 2-({4-cyclopropyl-6′-[(3R)-3-(dimethylamino)pyrrolidin-1-yl]-2,3′-bipyridin-yl}amino)pyridine-4-carbonitrile hydrochloride], the IC50 is 50 to 500 nM.

For the compound `N#Cc1ccnc(Nc2cc(C3CC3)cc(-c3ccc(N4CCCC4=O)nc3)n2)c1` [Example 53, 2-{[4-cyclopropyl-6′-(2-oxopyrrolidin-1-yl)-2,3′-bipyridin-6-yl]amino}pyridine-4-carbonitrile hydrochloride], the IC50 lay in the range of 50 to 500 nM.

Turning to `Cc1ccc(-c2cc(C3CC3)cc(Nc3cc(C#N)ccn3)n2)cn1` [Example 54, 2-[(4-cyclopropyl-6′-methyl-2,3′-bipyridin-6-yl)amino]pyridine-4-carbonitrile hydrochloride], the IC50 lay within 50 to 500 nM.

Consider `N#Cc1ccnc(Nc2cc(C3CC3)cc(-c3ccc4cn[nH]c4c3)n2)c1` [Example 55, 2-{[4-cyclopropyl-6-(1H-indazol-6-yl)pyridin-2-yl]amino}pyridine-4-carbonitrile hydrochloride], for which the IC50 lay within 5 to 50 nM.

On to `N#Cc1ccnc(Nc2cc(C3CC3)cc(-c3ccc4[nH]ncc4c3)n2)c1` [Example 56, 2-{[4-cyclopropyl-6-(1H-indazol-5-yl)pyridin-2-yl]amino}pyridine-4-carbonitrile hydrochloride], for which the IC50 lay in the range of 5 to 50 nM.

Turning to `N#Cc1ccnc(Nc2cc(C3CC3)cc(-c3ccc(N4CCN(C(N)=O)CC4)nc3)n2)c1` [Example 57, 4-{6-[(4-cyanopyridin-2-yl)amino]-4-cyclopropyl-2,3′-bipyridin-6′-yl}piperazine-1-carboxamide hydrochloride], the IC50 is 5 to 50 nM.

As to `CS(=O)(=O)N1CCN(c2ccc(-c3cc(C4CC4)cc(Nc4cc(C#N)ccn4)n3)cn2)CC1` [Example 58, 2-({4-cyclopropyl-6′-[4-(methanesulfonyl)piperazin-1-yl]-2,3′-bipyridin-6-yl}amino)pyridine-4-carbonitrile hydrochloride], the IC50 fell in the range of 5 to 50 nM.

On to `CC(=O)N1CCN(c2ccc(-c3cc(C4CC4)cc(Nc4cc(C#N)ccn4)n3)cn2)CC1` [Example 59, 2-{[6′-(4-acetylpiperazin-1-yl)-4-cyclopropyl-2,3′-bipyridin-6-yl]amino}pyridine-4-carbonitrile hydrochloride], for which the IC50 lay in the range of 5 to 50 nM.

Turning to `N#Cc1ccnc(Nc2cc(C3CC3)cc(-c3ccc(N4CCC(C(=O)O)CC4)nc3)n2)c1` [Example 60, 1-{6-[(4-cyanopyridin-2-yl)amino]-4-cyclopropyl-2,3′-bipyridin-6′-yl}piperidine-4-carboxylic acid hydrochloride], the IC50 lay in the range of 5 to 50 nM.

As for `N#Cc1ccnc(Nc2cc(C3CC3)cc(-c3ccc(N4CCC(C(N)=O)CC4)nc3)n2)c1` [Example 61, 1-{6-[(4-cyanopyridin-2-yl)amino]-4-cyclopropyl-2,3′-bipyridin-6′-yl}piperidine-4-carboxamide hydrochloride], the IC50 is 50 to 500 nM.

With `N#Cc1ccnc(Nc2cc(C3CC3)cc(-c3ccc(N4CCC(C(N)=O)(c5ccc(F)cc5)CC4)nc3)n2)c1` [Example 62, 1-{6-[(4-cyanopyridin-2-yl)amino]-4-cyclopropyl-2,3′-bipyridin-6′-yl}-4-(4-fluorophenyl)piperidine-4-carboxamide hydrochloride], the IC50 is 5 to 50 nM.

Turning to `CNC(=O)CN1CCN(c2ccc(-c3cc(C4CC4)cc(Nc4cc(C#N)ccn4)n3)cn2)CC1` [Example 63, 2-(4-{6-[(4-cyanopyridin-2-yl)amino]-4-cyclopropyl-2,3′-bipyridin-6′-yl}piperazin-1-yl)-N-methylacetamide hydrochloride], the IC50 is 50 to 500 nM.

On to `N#Cc1ccnc(Nc2cc(C3CC3)cc(-c3ccc(N4CCC(NC(N)=O)CC4)nc3)n2)c1` [Example 64, 1-(1-{6-[(4-cyanopyridin-2-yl)amino]-4-cyclopropyl-2,3′-bipyridin-6′-yl}piperidin-4-yl)urea hydrochloride], for which the IC50 was in the range of 5 to 50 nM.

For `N#Cc1ccnc(Nc2cc(C3CC3)cc(-c3ccc(NC4CCN(C(N)=O)CC4)nc3)n2)c1` [Example 65, 4-({6-[(4-cyanopyridin-2-yl)amino]-4-cyclopropyl-2,3′-bipyridin-6′-yl}amino)piperidine-1-carboxamide hydrochloride], the IC50 fell in the range of 5 to 50 nM.

Regarding `N#Cc1ccnc(Nc2cc(C3CC3)cc(-c3ccc(N4CCNCC4=O)nc3)n2)c1` [Example 66, 2-{[4-cyclopropyl-6′-(2-oxopiperazin-1-yl)-2,3′-bipyridin-6-yl]amino}pyridine-4-carbonitrile hydrochloride], the IC50 was 50 to 500 nM.

On to `N#Cc1ccnc(Nc2cc(C3CC3)cc(-c3ccc(N4CCN(C(N)=O)CC4=O)nc3)n2)c1` [Example 67, 4-{6-[(4-cyanopyridin-2-yl)amino]-4-cyclopropyl-2,3′-bipyridin-6′-yl}-3-oxopiperazine-1-carboxamide hydrochloride], for which the IC50 lay in the range of 50 to 500 nM.

`N#Cc1ccnc(Nc2cc(C3CC3)cc(-c3cncc(N4CCS(=O)(=O)CC4)c3)n2)c1` [Example 68, 2-{[4-cyclopropyl-5′-(1,1-dioxidethiomorpholin-4-yl)-2,3′-bipyridin-6-yl]amino}pyridine-4-carbonitrile hydrochloride]: the IC50 lay within 50 to 500 nM.
